Data on 1 compound can be found in ChEMBL document CHEMBL1126601, “Synthesis of a photoaffinity analog of taxol as an approach to identify the taxol binding site on microtubules” (J Med Chem, 1993).

The test system of one assay is J774. Description: Drug concentration that inhibits cell division by 50% after 72 hr incubation for murine like macrophage cell line J774.2. Format: functional. To be noted: Mus musculus, J774, 72 h; read-out: ED50 (the source's name).
The species named for the next assay is Mus musculus. Briefly: Ability to inhibit binding of [3H]taxol was determined. Format: functional.

One may read the Ki as a dissociation constant, usually derived from enzyme kinetics or from competition with a known ligand. A higher Ki goes with lower affinity. As to `CC(=O)O[C@H]1C(=O)[C@@]2(C)C([C@H](CC(=O)c3ccccc3)[C@]3(O)C[C@H](OC(=O)[C@H](O)C(NC(=O)c4ccccc4)c4ccccc4)C(C)=C1C3(C)C)[C@]1(OC(C)=O)CO[C@@H]1C[C@@H]2O` (some centres not stated), in the assay with J774, the EC50 was determined as 50 nM. Besides, the Ki in the assay filed under Mus musculus turned out to be 2000 nM.
